Experimental data reported in publication PMC8638962, “Opposing Effects of PhoPQ and PmrAB on the Properties of Salmonella enterica serovar Typhimurium: Implications on Resistance to Antimicrobial Peptides” (Biochemistry, 2021).
In brackets after ≈: the same amount, converted by molar mass. Where a SMILES comes first, the peptide text is derived from it. Where no end group is shown, it is not given here. [ ]: non-standard residue; d: D form. The star is where a group is joined. Octanoyl = CCCCCCCC(=O)*

Assays:
[1] = RP-HPLC retention as measure of hydrophobicity; type: physicochemical; settings: C18 column, linear gradient 10–90% acetonitrile in water with 0.1% TFA in 40 min, 1.8 mL/min; for retention time: RP-HPLC retention time used as measure of hydrophobicity; for relative hydrophobicity (% ACN): percent of acetonitrile at the retention time, RP-HPLC
Excerpt: The peptides were synthesized by a solid phase method on a rink amide MBHA resin using an ABI 433A automatic peptide synthesizer (Applied Biosystems). The resin-bound peptides (0.1 mequiv each) were cleaved from the resins by trifluoroacetic acid (TFA), washed with dry ether, and extracted with acetonitrile/water (50% v/v). All peptides were amidated at their C terminus. The peptides were further purified by reverse-phase high-pressure liquid chromatography (RP-HPLC) on a C18 reverse-phase Bio-Rad column (250 × 10 mm^2, 300 Å pore size, 5 μm particle size). A linear gradient of 10–90% acetonitrile in water containing 0.1% TFA (v/v) in 40 min was used at a flow rate of 1.8 mL/min. […] Electrospray mass spectroscopy confirmed their identity.[23]
(§1) We investigated both natural and de novo-designed AMPs (Table 1). The list includes (i) the human cathelicidin LL-37, (ii) a de novo-designed 15-mer AMP designated K6L9 and (iii) its D,L-amino acid-containing analogue, D,L-K6L9, and (iv) D,L amino acid histidine derivative, D,L-H6L9, (v) a 12-mer D,L-K5L7 and (vi) its caprylic-acid-conjugated analogue C8-D,L-K5L7, and (vii) the frog antimicrobial peptide Temporin L.[23] These peptides have different net positive charges under the experimental conditions, as well as hydrophobicity (represented by RP-HPLC retention times), as indicated in Table 1. The peptides were tested for their antibacterial activity against WT S. enterica serovar Typhimurium ATCC 14028 (S. typhimurium) and its mutants (Table 2). The minimal inhibitory concentration (MIC) was defined using a broth microdilution antimicrobial assay. S. typhimurium have been widely used for the exploration of bacterial resistance acquired from these two TCSs.[52],[53]

[2] = test system: S. enterica serovar Typhimurium 14 028s wild-type; type: cell-based; settings: broth microdilution, serial twofold dilution in modified N-minimal media (MNMM), 18–20 h at 37 °C with agitation, read by visible turbidity; WT ATCC 14028
Method: (§2) The antimicrobial activity of the peptides was examined in sterile 96-wells plates (Nunc F96 microtiter plates) in a final volume of 100 μL as follows. Aliquots (50 μL) of an overnight suspension-containing bacteria (late-log phase diluted 1:5000) were added to 50 μL of modified N-minimal media (MNMM) containing the peptides in a serial twofold dilution, and antibiotics, if required, to select for the specific mutant. Inhibition of growth was determined by the visibility of turbidity in comparison to blank with no growth after an incubation of 18–20 h at 37 °C with agitation. Antibacterial activity was expressed as the minimal inhibitory concentration (MIC) in which no growth could be observed.
as §1

[3] = test system: S. enterica serovar Typhimurium 14 028s phoP knockout; type: cell-based; settings: broth microdilution, serial twofold dilution in MNMM, 18–20 h at 37 °C with agitation, read by visible turbidity
Method: as §2, §1

[4] = test system: S. enterica serovar Typhimurium 14 028s phoP and PmrAB knockout; type: cell-based; settings: broth microdilution, serial twofold dilution in MNMM, 18–20 h at 37 °C with agitation, read by visible turbidity; phoP and PmrAB double knockout
Method: as §2, §1

[5] = test system: S. enterica serovar Typhimurium 14 028s PmrAB knockout; type: cell-based; settings: broth microdilution, serial twofold dilution in MNMM, 18–20 h at 37 °C with agitation, read by visible turbidity
Method: as §2, §1

| Compound | retention time [1] [min] | relative hydrophobicity (% ACN) [1] [% ACN] | MIC, WT [2] [µM] | MIC, phoP-KO [3] [µM] | MIC, DKO [4] [µM] | MIC, pmrAB-KO [5] [µM] |
| --- | --- | --- | --- | --- | --- | --- |
| CCCCCCCC(=O)N[C@@H](CCCCN)C(=O)N[C@@H](CCCCN)C(=O)N[C@H](CC(C)C)C(=O)N[C@H](CC(C)C)C(=O)N[C@@H](CCCCN)C(=O)N[C@@H](CC(C)C)C(=O)N[C@@H](CC(C)C)C(=O)N[C@H](CC(C)C)C(=O)N[C@@H](CCCCN)C(=O)N[C@H](CC(C)C)C(=O)N[C@@H](CC(C)C)C(=O)N[C@@H](CCCCN)C(N)=O [C8-D,L-K5L7] (Octanoyl-KK[dL][dL]KLL[dL]K[dL]LK-NH2) | 29.1 | 68.2 | 3.125 (≈ 4.93 µg/mL) | 3.125 (≈ 4.93 µg/mL) | 3.125 (≈ 4.93 µg/mL) | 6.25 (≈ 9.85 µg/mL) |
| CC(C)C[C@H](NC(=O)[C@H](CC(C)C)NC(=O)[C@@H](Cc1c[nH]cn1)NC(=O)[C@H](CC(C)C)NC(=O)[C@H](CC(C)C)NC(=O)[C@H](Cc1c[nH]cn1)NC(=O)[C@@H](Cc1c[nH]cn1)NC(=O)[C@@H](CC(C)C)NC(=O)[C@H](CC(C)C)NC(=O)[C@@H](Cc1c[nH]cn1)NC(=O)[C@H](Cc1c[nH]cn1)NC(=O)[C@H](CC(C)C)NC(=O)[C@@H](CC(C)C)NC(=O)[C@H](Cc1c[nH]cn1)NC(=O)[C@@H](N)CC(C)C)C(N)=O [D,L-H6L9] (H-LH[dL]LH[dH]L[dL][dH]HLL[dH]LL-NH2; N-terminus assumed) | 29.3 | 68.6 | 100 (≈ 186 µg/mL) | 50 (≈ 92.9 µg/mL) | 50 (≈ 92.9 µg/mL) | 50 (≈ 92.9 µg/mL) |
| CC(C)C[C@H](NC(=O)[C@H](CCCCN)NC(=O)[C@@H](CC(C)C)NC(=O)[C@@H](CC(C)C)NC(=O)[C@H](CCCCN)NC(=O)[C@@H](N)CCCCN)C(=O)N[C@@H](CC(C)C)C(=O)N[C@H](CC(C)C)C(=O)N[C@@H](CCCCN)C(=O)N[C@H](CC(C)C)C(=O)N[C@@H](CC(C)C)C(=O)N[C@@H](CCCCN)C(N)=O [D,L-K5L7] (H-KK[dL][dL]KLL[dL]K[dL]LK-NH2; N-terminus assumed) | 23.5 | 57 | 6.25 (≈ 9.06 µg/mL) | 1.56 (≈ 2.26 µg/mL) | 3.125 (≈ 4.53 µg/mL) | 12.5 (≈ 18.1 µg/mL) |
| CC(C)C[C@H](NC(=O)[C@H](CC(C)C)NC(=O)[C@@H](CCCCN)NC(=O)[C@H](CC(C)C)NC(=O)[C@H](CC(C)C)NC(=O)[C@H](CCCCN)NC(=O)[C@@H](CCCCN)NC(=O)[C@@H](CC(C)C)NC(=O)[C@H](CC(C)C)NC(=O)[C@@H](CCCCN)NC(=O)[C@H](CCCCN)NC(=O)[C@H](CC(C)C)NC(=O)[C@@H](CC(C)C)NC(=O)[C@H](CCCCN)NC(=O)[C@@H](N)CC(C)C)C(N)=O [D,L-K6L9] (H-LK[dL]LK[dK]L[dL][dK]KLL[dK]LL-NH2; N-terminus assumed) | 27.7 | 65.4 | 1.56 (≈ 2.82 µg/mL) | 0.39 (≈ 0.704 µg/mL) | 0.78 (≈ 1.41 µg/mL) | 1.56 (≈ 2.82 µg/mL) |
| CC[C@H](C)[C@H](NC(=O)[C@H](CCCCN)NC(=O)[C@H](CCC(=O)O)NC(=O)[C@H](CCCCN)NC(=O)[C@H](CO)NC(=O)[C@H](CCCCN)NC(=O)[C@H](CCCNC(=N)N)NC(=O)[C@H](Cc1ccccc1)NC(=O)[C@H](Cc1ccccc1)NC(=O)[C@H](CC(=O)O)NC(=O)CNC(=O)[C@H](CC(C)C)NC(=O)[C@@H](N)CC(C)C)C(=O)NCC(=O)N[C@@H](CCCCN)C(=O)N[C@@H](CCC(=O)O)C(=O)N[C@@H](Cc1ccccc1)C(=O)N[C@@H](CCCCN)C(=O)N[C@@H](CCCNC(=N)N)C(=O)N[C@H](C(=O)N[C@H](C(=O)N[C@@H](CCC(N)=O)C(=O)N[C@@H](CCCNC(=N)N)C(=O)N[C@H](C(=O)N[C@@H](CCCCN)C(=O)N[C@@H](CC(=O)O)C(=O)N[C@@H](Cc1ccccc1)C(=O)N[C@@H](CC(C)C)C(=O)N[C@@H](CCCNC(=N)N)C(=O)N[C@@H](CC(N)=O)C(=O)N[C@@H](CC(C)C)C(=O)N[C@H](C(=O)N1CCC[C@H]1C(=O)N[C@@H](CCCNC(=N)N)C(=O)N[C@H](C(=O)N[C@@H](CCC(=O)O)C(=O)N[C@@H](CO)C(N)=O)[C@@H](C)O)C(C)C)[C@@H](C)CC)C(C)C)[C@@H](C)CC [LL-37, reference compound] | – | – | 3.125 (≈ 14 µg/mL) | 1.56 (≈ 7.01 µg/mL) | 3.125 (≈ 14 µg/mL) | 6.25 (≈ 28.1 µg/mL) |
| FVQWFSKFLGRIL-NH2 [Temporin L, reference compound] | – | – | 25 | 12.5 | 25 | 25 |
| LKLLKKLLKKLLKLL-NH2 [L-K6L9] | – | – | 1.56 | 0.39 | 3.125 | 3.125 |
